Results from patent US8748445B2, “Methods for treating glioma” (The UAB Research Foundation, priority 2004, dated 2014).
Entries after “also recorded” stand apart in the source; their conditions may differ.

How the values were obtained:
[1] = tested on: glioma cell lines (D-54MG, U-87MG, U-251MG and STTG1) and a primary glioma culture (GBM62); assay: growth curves of glioma cells over 5 days; format: cell-based, human; settings: 5 days; 0.1 and 0.25 mM (S)-4-CPG, 0.25 and 0.5 mM sulfasalazine; all glioma cell lines and GBM62 (FIGS. 3A, 3B)
Experimental: To examine whether the depletion of glutathione via inhibition of cystine uptake by system Xc affects the growth of glioma cells, growth curves for 4 glioma cell lines (D-54MG, U-87MG, U-251MG and STTG1) and a primary glioma culture (GBM62) were established.
In the presence of 0.25 mM (S)-4-CPG, growth of D-54MG cells indeed recovered by the addition of fourfold excess of cystine (FIG. 3E), but not with glutamate (FIG. 3D), the second substrate for system Xc.

glioma cells = assay: cell cycle: total DNA content by flow cytometry (propidium iodide); format: cell-based, human; settings: 0.5 mM (FIG. 4D)
Experimental: To test whether inhibition of cystine uptake affects a specific stage of the cell cycle, changes in total DNA content were measured using flow cytometry following treatment with 0.5 mM (S)-4-CPG and 0.5 mM sulfasalazine. Cells were fixed with para-formaldehyde and stained with the nuclear marker propidium iodide after incubation with drugs.

D54-MG glioma cells [2] = assay: histological markers of cell death and proliferation in tumor sections; format: in vivo, CB-17 scid mice
Source text: To further examine effects of sulfasalazine in vivo at the cellular level, the tumor sections were examined with commonly used histological markers for cell death, including ApopTag/methyl green (FIGS. 8A and 8B) and terminal deoxynucleotidyl transferase-mediated biotinylated UTP nick end labeling (TUNEL) (FIGS. 8C and 8D), and proliferation (Ki-67) (FIGS. 8E and 8F). Multiple fields from several serial sections from two control group and two treatment group animals (see description above regarding FIG. 7A) were examined. […] Indeed, necrosis is a hallmark of grade IV gliomas and a necessary feature for their histopathological grading as such. At a higher resolution (40×), significant cell death was observed as evident from TUNEL (FIG. 8C) and caspase-3 staining (data not shown). In these figures, TUNEL staining is indicated by a lighter green color against a background of DAPI staining.

[3] = tested on: primary astrocyte cultures; assay: growth of primary astrocyte cultures; format: cell-based; settings: (S)-4-CPG 0.25 mM and 0.5 mM (FIG. 3C); sulfasalazine data not shown
U87-MG = assay: intracranial U87-MG luciferase xenograft, bioluminescence imaging; format: in vivo, CB-17 nude mice; settings: 8 mg twice daily for 3 weeks, then 1 dose per day (FIG. 7B)
Experimental: These U87-MG cells were similarly implanted intracranially as described above, but this time into CB-17 nude mice. After 7 days, animals were randomized into […]. The control group received an intraperitoneal injection of 1 ml dose of saline twice daily. The two test groups received an 8 mg dose of sulfasalazine (in 1 ml saline) twice daily for 3 weeks, followed by 1 dose per day of 8 mg sulfasalazine thereafter. Animals were imaged for tumor size, typically once per week, using a bioluminescence imaging system (IVIS system; Xenogen). Light emission from the tumor regions (in relative photons/second) were quantified using Living Image, version 2.20.1, software provided by Xenogen and plotted as a function of time.

cortical astrocytes = assay: 35S-labeled cystine uptake in cortical astrocytes; format: cell-based; parameters: dose or concentration left out as unconfirmed; settings: compared with D-54MG glioma cells (FIG. 2B)
Source text: System Xc is a glutamate-cystine exchanger and can therefore be inhibited if the outward directed gradient for glutamate is eliminated by exposure to high concentrations of extracellular glutamate. The principal hypothesis in this study is that system Xc serves as a pipeline for cellular cystine uptake, with glutamate release being an obligatory by-product. Cystine uptake is the rate-limiting step for the synthesis of GSH, which is the main intracellular antioxidant that protects cells from oxidative stress and resulting reactive oxygen species (ROS) (Jefferies et al., 2003).

caspase-3 = assay: activated caspase-3 by Western blot analysis; format: cell-based, human; settings: 0.5 mM; D-54MG cells (FIG. 5C)
Experimental: Because an accumulation of ROS can lead to apoptotic cell death, the ability of system Xc inhibitors to induce apoptosis in glioma cells was examined. […] Often apoptosis is dependent on caspase activities, so it was determined whether the system Xc inhibitors induce activated caspase-3, which is the convergent enzyme in the caspase-dependent signaling cascade. […] With 1 mM sulfasalazine, 90% of cells died over the 5 d incubation (FIG. 5E).

cultured glioma cells = assay: glutathione levels in cultured glioma cells (monochlorobimane assay); format: cell-based, human
Experimental: (§1) The control group and treatment group animals were those described in FIG. 7A above. For these experiments, four mice (two control and two treatment) were sacrificed at 44 days after tumor induction, and brains were rapidly frozen and cryosectioned to […], thawed on ice, and then incubated with 100 μM monochlorobimane for 10 min. Fluorescence intensities were examined using a quantitative fluorescence imaging system comparing side-by-side slices from control group and treatment group animals. In these experiments, 10 slices were examined per animal. […] After treatment with 8 mg sulfasalazine 2 times per day, glutathione levels decreased approximately 30% (from 100+/−5.6 to 71.7+/−7.5 fluorescence units; p 0.01; t test) in tumors as compared with control animals (receiving saline alone). In parallel studies, the same assay was used on cultured glioma cells to validate these readouts. A 30% decrease in glutathione levels correlates with the glutathione depletion achieved with 70 μM sulfasalazine administered for 24 h to cultured cells; the maximal decrease achieved with 250 μM sulfasalazine in cultured U87-MG cells was 68% (data not shown).

D54-MG glioma cells [4] = assay: glutathione levels in tumor sections (monochlorobimane fluorescence); format: in vivo, CB-17 scid mice; settings: 8 mg 2 times per day, 44 days after tumor induction
Experimental: as §1

O=C(O)c1cc(/N=N/c2ccc(S(=O)(=O)Nc3ccccn3)cc2)ccc1O [sulfasalazine]
growth of glioma cells [1]: dose-dependent growth inhibitions
cell cycle distribution (total DNA content) (glioma cells): a reduction of cells in G2 phase and an increase in cells in S phase
tumor necrosis (ApopTag) (D54-MG glioma cells [2]; sulfasalazine-treated animals of FIG. 7A (FIG. 8B)): almost no evidence for necrosis
Ki-67 index (D54-MG glioma cells [2]; sulfasalazine-treated tumor sections, similar to control, no significant difference): approximately 15
TUNEL labeling in tumor sections (D54-MG glioma cells [2]; sulfasalazine-treated versus control (FIG. 8D), not statistically significant): reduced TUNEL
caspase-3 labeling in tumor sections (D54-MG glioma cells [2]; sulfasalazine-treated versus control, data not shown): reduced
growth of primary astrocyte cultures [3]: Neither (S)-4-CPG (FIG. 3C) nor sulfasalazine (data not shown) affected
tumor growth by bioluminescence imaging (U87-MG): reduce tumor growth significantly
inhibition of cystine uptake in cortical astrocytes (cortical astrocytes): to a significantly lesser degree; also recorded: only a limited inhibition
activated form of caspase-3 (caspase-3): increased the activated form of caspase-3
decrease in glutathione levels in cultured cells (cultured glioma cells; 70 μM for 24 h): 30%
maximal decrease in glutathione levels (cultured glioma cells; 250 μM, cultured U87-MG cells, data not shown): 68%
glutathione levels in tumors (D54-MG glioma cells [4]; control 100+/−5.6): 71.7+/−7.5 fluorescence units
decrease of glutathione levels in tumors (D54-MG glioma cells [4]; versus saline control): approximately 30%
